What was measured:
[1] = system: ATF4 in HCT116 colorectal cancer cells; assay: HCT116 amino acid starved (-AA) ATF4 assay (Western blot); type: cell-based; conditions: Homo sapiens, HCT-116, 4 h
How it was run: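 HCT116 cells switched to amino-acid-free EBSS (10% dialyzed FBS, 5.5 mM glucose, vitamins) with serial compound dilutions for 4 h at 37° C. Lysates Western blotted for phospho-GCN2 (Thr899), total GCN2, ATF4 and beta-actin; IC50 values derived from quantified bands.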

[2] = system: H929, RPMI8226, GA-10 and DoHH-2 cells; assay: Inhibition of multiple myeloma and B-cell lymphoma cell proliferation; type: cell-based; conditions: combination with SOC agents for multiple myeloma or B cell lymphomas
Protocol: H929, RPMI8226, GA-10, and DoHH-2 cells (catalog #CRL-9068) were obtained from the American Type Culture Collection (ATTC, Manassas, VA). H929 Cells were maintained in RPMI-1640 medium supplemented with 20% heat-inactivated fetal bovine serum (catalog #A3840002, ThermoFisher Scientific, Waltham, MA), 1% Penicillin/Streptomycin/L-Glutamine (catalog #10378016, ThermoFisher Scientific, Waltham, MA), and 0.05 mM 2-mercaptoethanol (catalog #21985-023, ThermoFisher Scientific, Waltham, MA). […]
For cell proliferation assay appropriate number of cells (Forty thousand cells for H929; Twenty thousand cells for RPMI8226, and GA-10; Eight thousand cells for DoHH-2) were seeded per well in 200 μL in respective medium were dispensed into a 96-well black clear bottom plate. […] Plates were read on a Synergy2 or equivalent reader (Biotek, Winooski VT) using an excitation of 540 nm and an emission of 600 nm. At the end of the incubation of DoHH-2, cell viability was determined using CellTiter-Glo® assay (Promega, Madison, WI). Luminescence was measured using EnVision MultiLabel Reader (PerkinElmer, Waltham, MA). Data was analyzed using GraphPad Prism software (GraphPad, San Diego, CA) to calculate IC50 values.

PERK kinase = PERK kinase (Homo sapiens (Human), UniProt Q9NZJ5); assay: Biochemical assay for PERK (coupled pyruvate kinase/lactate dehydrogenase assay); conditions: 1 mM ATP, rate from 2-3 h time frame
How it was run: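 Coupled pyruvate kinase/lactate dehydrogenase readout of ATP hydrolysis via NADH oxidation (A340), 10 nM PERK, 0.25 mg/mL myelin basic protein, 1 mM ATP, pH 7.5 Tris/MgCl2 buffer, 1% DMSO. Absorbance followed 6 h at 30° C; rate from the 2-3 h window, normalised to no-compound and known-inhibitor controls, IC50 fitted.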

Chain of PERK kinase (Q9NZJ5 other isoform, or with tags, fused parts or gaps): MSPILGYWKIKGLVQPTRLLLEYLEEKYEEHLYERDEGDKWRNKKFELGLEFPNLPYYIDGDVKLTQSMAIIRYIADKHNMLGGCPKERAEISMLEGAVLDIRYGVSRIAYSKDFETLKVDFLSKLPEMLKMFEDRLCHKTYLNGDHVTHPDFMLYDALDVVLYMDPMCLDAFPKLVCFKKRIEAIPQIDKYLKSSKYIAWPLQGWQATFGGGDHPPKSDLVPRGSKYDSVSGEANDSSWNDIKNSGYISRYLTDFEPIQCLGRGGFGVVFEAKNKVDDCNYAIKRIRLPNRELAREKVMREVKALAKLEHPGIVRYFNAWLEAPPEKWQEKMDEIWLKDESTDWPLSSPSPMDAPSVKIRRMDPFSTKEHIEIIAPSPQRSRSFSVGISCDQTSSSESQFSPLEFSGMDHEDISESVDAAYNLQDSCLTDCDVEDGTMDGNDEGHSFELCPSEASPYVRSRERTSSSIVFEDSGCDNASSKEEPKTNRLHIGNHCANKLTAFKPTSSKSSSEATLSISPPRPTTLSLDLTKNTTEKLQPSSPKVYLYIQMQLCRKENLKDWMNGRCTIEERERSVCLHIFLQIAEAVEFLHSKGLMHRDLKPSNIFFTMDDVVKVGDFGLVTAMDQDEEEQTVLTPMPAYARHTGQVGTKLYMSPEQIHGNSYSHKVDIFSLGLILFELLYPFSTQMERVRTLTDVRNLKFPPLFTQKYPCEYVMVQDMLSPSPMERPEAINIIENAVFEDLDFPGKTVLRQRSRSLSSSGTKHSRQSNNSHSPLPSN

Compound: CNc1ncc2cc(-c3cccc(NS(=O)(=O)c4cc(Cl)cnc4OC)c3F)c(NC)nc2n1 [Compound 16]
- IC50 [1]: ≤ 100 nM
- inhibition of cell proliferation in combination with standard of care agents [2]: additivity or synergy
- IC50 (PERK kinase): 100 to 500 nM

From patent US11912668B2, “GCN2 and perk kinase inhibitors and methods of use thereof” (Deciphera Pharmaceuticals, LLC, priority 2020, dated 2024)
